Test results reported in ChEMBL document CHEMBL6078670, “Discovery of a potent and selective TRPC3 antagonist with neuroprotective effects” (Bioorg Med Chem, 2025).
Converted amounts (≈) assume the structure as drawn. The source made the active and inactive calls. No cut-off for these calls is given here.

Key:
[1] = biological target: T1, Short transient receptor potential channel 3 (Homo sapiens) (UniProt Q13507); experiment: Antagonist activity at human TRPC3 expressed in HEK293 cells assessed as inhibition of carbachol-induced activity at 10 uM measured after 48 hrs by Whole-cell patch clamp electrophysiology relative to control; format: cell-based
T1 sequence (whole entry): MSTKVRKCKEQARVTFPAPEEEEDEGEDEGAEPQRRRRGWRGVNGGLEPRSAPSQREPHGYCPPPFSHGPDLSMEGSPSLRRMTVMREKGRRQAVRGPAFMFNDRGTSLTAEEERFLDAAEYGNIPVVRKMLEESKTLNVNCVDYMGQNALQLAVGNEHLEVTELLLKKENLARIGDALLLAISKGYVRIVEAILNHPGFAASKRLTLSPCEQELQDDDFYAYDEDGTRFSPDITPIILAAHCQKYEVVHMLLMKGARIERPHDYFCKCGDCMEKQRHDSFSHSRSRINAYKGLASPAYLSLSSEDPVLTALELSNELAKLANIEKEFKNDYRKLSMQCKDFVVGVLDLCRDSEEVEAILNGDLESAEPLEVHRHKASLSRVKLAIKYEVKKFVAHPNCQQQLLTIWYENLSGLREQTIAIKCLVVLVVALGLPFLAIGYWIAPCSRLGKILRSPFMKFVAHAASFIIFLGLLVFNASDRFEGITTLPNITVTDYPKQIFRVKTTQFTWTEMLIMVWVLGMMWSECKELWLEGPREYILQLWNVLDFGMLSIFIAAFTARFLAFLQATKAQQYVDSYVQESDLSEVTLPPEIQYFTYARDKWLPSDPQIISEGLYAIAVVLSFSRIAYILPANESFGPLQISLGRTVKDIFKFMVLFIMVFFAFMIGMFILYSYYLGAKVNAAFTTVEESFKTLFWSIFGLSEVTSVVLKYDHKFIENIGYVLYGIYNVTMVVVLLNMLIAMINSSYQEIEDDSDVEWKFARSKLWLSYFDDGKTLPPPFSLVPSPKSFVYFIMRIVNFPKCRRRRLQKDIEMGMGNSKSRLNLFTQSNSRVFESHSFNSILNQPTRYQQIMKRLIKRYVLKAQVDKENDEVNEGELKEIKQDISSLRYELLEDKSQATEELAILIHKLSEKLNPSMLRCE

[2] = biological target: T2, Short transient receptor potential channel 7 (Homo sapiens) (UniProt Q9HCX4); experiment: Antagonist activity at human TRPC7 expressed in HEK293 cells assessed as inhibition of carbachol-induced activity at 10 uM measured after 48 hrs by Whole-cell patch clamp electrophysiology; format: cell-based
T2 sequence (whole entry): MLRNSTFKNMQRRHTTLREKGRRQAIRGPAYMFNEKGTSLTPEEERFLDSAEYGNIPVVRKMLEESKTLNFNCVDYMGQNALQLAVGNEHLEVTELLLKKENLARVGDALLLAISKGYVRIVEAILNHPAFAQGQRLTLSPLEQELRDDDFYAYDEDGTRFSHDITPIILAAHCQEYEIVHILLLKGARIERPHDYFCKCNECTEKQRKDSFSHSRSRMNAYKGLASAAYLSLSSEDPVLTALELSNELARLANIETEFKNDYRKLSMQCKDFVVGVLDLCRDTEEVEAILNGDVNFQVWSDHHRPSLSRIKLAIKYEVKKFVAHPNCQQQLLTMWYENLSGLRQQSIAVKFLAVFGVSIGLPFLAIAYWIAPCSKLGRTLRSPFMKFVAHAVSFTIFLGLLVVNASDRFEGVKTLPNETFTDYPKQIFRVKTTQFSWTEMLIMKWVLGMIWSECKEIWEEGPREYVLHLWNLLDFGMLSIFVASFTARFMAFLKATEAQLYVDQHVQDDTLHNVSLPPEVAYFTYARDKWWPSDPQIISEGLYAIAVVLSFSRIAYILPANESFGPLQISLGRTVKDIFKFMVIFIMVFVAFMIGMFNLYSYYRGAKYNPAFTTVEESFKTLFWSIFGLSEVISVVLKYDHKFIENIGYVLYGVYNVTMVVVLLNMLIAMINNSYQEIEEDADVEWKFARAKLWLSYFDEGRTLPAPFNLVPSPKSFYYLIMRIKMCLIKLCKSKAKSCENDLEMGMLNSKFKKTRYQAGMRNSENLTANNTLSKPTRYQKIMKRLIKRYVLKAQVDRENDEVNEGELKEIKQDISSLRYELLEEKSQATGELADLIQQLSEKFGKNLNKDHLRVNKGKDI

[3] = biological target: Short transient receptor potential channel 1 (Rattus norvegicus) (UniProt Q9QX01); experiment: Antagonist activity at rat TRPC1 expressed in HEK293 cells assessed as inhibition of carbachol-induced activity at 10 uM measured after 48 hrs by Whole-cell patch clamp electrophysiology; format: cell-based
Sequence of Short transient receptor potential channel 1 (Rattus norvegicus) (Q9QX01 whole entry): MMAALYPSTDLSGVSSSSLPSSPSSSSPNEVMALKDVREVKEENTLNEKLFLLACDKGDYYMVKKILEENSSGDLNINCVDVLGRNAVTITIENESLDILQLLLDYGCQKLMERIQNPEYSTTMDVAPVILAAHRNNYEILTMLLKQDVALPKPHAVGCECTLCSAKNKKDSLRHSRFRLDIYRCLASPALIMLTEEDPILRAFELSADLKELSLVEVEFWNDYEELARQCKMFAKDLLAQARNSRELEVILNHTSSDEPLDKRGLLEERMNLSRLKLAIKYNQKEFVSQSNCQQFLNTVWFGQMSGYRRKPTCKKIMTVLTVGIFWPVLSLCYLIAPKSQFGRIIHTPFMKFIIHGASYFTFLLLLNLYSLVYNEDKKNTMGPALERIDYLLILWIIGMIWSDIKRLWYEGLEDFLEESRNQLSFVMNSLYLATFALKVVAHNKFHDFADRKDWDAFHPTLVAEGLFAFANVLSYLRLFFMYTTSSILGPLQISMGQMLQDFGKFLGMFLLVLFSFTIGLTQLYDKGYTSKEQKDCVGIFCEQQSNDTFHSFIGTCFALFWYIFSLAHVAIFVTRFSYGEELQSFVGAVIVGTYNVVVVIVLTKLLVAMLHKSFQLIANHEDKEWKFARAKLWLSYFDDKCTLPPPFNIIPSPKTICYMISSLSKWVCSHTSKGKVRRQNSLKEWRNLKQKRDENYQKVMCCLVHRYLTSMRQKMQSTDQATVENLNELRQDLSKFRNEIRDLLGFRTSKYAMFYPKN

[4] = biological target: Short transient receptor potential channel 1 (Mus musculus) (UniProt Q61056); experiment: Antagonist activity at mouse TRPC1 expressed in HEK293 cells assessed as inhibition of carbachol-induced activity at 10 uM measured after 48 hrs by Whole-cell patch clamp electrophysiology; format: cell-based
Sequence of Short transient receptor potential channel 1 (Mus musculus) (Q61056 whole entry): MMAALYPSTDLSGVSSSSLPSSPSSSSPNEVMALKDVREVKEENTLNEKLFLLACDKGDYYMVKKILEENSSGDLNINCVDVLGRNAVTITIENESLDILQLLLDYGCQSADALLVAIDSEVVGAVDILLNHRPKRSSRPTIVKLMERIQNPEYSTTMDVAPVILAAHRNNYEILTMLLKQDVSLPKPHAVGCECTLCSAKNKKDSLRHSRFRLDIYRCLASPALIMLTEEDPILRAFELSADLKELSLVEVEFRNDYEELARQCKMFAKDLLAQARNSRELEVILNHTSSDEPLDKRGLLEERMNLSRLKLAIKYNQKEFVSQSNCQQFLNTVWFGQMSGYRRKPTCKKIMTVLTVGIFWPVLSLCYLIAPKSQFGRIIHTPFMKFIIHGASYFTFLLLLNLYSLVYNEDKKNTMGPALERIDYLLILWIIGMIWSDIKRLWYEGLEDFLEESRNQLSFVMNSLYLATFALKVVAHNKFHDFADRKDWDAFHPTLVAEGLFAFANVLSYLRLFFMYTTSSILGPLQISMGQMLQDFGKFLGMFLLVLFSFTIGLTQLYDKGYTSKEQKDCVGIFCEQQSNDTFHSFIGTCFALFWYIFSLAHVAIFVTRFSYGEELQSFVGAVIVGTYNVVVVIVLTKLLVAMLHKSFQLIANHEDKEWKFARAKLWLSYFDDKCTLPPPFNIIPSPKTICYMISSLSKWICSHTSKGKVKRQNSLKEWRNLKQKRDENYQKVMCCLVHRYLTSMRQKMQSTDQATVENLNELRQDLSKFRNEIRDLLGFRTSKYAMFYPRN

[5] = biological target: Transient receptor potential cation channel subfamily M member 8 (Rattus norvegicus) (UniProt Q8R455); experiment: Antagonist activity at rat TRPM8 expressed in HEK293 cells assessed as inhibition of carbachol-induced activity at 10 uM measured after 48 hrs by Whole-cell patch clamp electrophysiology; format: cell-based
Sequence of Transient receptor potential cation channel subfamily M member 8 (Rattus norvegicus) (Q8R455 whole entry, looked up): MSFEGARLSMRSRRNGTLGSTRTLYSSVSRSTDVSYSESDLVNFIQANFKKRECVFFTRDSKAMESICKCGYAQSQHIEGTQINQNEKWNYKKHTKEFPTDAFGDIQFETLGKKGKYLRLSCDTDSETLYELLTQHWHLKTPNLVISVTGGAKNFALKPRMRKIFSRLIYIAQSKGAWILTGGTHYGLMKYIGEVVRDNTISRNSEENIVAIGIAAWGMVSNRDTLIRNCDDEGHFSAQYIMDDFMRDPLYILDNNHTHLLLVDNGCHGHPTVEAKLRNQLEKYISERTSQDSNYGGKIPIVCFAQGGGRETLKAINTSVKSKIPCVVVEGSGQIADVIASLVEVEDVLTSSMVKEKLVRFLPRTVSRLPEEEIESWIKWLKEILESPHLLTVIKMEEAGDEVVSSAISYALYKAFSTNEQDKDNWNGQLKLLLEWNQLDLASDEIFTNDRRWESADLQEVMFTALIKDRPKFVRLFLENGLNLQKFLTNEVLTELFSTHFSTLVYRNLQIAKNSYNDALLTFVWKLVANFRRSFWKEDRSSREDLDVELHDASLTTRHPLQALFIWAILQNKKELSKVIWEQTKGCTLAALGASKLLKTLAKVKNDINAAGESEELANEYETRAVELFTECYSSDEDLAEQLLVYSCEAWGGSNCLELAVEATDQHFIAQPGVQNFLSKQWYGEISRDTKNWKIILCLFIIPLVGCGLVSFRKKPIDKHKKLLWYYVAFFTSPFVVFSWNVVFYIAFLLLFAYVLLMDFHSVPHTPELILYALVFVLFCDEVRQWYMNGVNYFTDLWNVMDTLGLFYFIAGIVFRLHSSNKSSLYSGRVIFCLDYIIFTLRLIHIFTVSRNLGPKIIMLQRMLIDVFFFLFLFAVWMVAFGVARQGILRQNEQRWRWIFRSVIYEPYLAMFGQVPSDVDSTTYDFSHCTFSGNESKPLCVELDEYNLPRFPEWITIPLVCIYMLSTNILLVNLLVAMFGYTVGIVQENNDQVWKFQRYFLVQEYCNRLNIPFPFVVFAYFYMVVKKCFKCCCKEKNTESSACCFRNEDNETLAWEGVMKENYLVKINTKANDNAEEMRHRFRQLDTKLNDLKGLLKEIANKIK

[6] = biological target: T3, Short transient receptor potential channel 6 (Homo sapiens) (UniProt Q9Y210); experiment: Antagonist activity at human TRPC6 expressed in HEK293 cells assessed as inhibition of carbachol-induced activity at 10 uM measured after 48 hrs by Whole-cell patch clamp electrophysiology; format: cell-based
T3 sequence (whole entry): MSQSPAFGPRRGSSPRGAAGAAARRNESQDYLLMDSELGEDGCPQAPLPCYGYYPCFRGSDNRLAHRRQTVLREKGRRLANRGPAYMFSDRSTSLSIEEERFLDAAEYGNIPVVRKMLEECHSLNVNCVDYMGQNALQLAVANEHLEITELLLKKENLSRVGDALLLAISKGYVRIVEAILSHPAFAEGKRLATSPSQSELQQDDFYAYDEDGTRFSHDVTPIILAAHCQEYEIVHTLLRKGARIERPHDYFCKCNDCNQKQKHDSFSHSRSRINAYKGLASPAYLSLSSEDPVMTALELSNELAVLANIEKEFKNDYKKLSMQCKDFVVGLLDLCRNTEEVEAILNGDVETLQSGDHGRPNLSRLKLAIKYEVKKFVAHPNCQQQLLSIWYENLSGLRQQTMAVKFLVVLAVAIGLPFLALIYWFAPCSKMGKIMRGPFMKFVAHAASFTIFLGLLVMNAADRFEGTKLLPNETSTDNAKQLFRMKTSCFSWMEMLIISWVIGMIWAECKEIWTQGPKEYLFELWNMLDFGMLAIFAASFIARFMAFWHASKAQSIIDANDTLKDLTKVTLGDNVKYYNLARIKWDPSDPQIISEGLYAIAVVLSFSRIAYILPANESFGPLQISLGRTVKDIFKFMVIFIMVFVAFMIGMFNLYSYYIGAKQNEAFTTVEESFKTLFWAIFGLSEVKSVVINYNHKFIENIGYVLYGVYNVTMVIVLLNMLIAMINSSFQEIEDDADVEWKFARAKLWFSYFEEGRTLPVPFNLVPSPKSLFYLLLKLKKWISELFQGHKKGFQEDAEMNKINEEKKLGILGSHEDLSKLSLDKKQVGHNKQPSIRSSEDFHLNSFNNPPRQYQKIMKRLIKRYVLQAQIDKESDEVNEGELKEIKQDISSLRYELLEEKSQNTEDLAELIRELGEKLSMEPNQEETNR

Hippocampal neurone = experiment: Rescuing beta-amyloid induced neuronal cell damage in Sprague-Dawley rat primary hippocampal cell culture (composed of 60% primary neuron, 20% microglia and 20% astrocyte) assessed as decrease in soluble oligomeric Abeta-containing media (7PA2 cells) induced synaptic toxicity at 250 nM; format: functional, cell-based
[7] = Kinetic solubility of the compound in ph 7.4 PBS buffer measured after 24 hrs shaken by HPLC and UPLC system; format: physicochemical; settings: read-out: Kinetic_solubility
[8] = Cytotoxicity against Sprague-Dawley rat primary hippocampal cells at 100 nM; format: toxicity, cell-based; settings: hippocampal neurone, 0.1 µM

## CCNC(=O)c1cnn(-c2ccc(-n3ccc(OC)c(Cl)c3=O)cc2)c1C(F)(F)F
[1]
  inhibition: < 80%

## O=C(c1cnn(-c2ccc(-n3ccc(Cl)c(Cl)c3=O)cc2)c1C(F)(F)F)N1CCCC1
[1]; filed as antagonist
  inhibition: > 80%

## CCN(CC)Cc1cnn(-c2ccc(-n3ccc(Cl)c(Cl)c3=O)cc2)c1C(F)(F)F
[1]; filed as antagonist
  inhibition: > 80%

## CCC(=O)Nc1cnn(-c2ccc(-n3ccc(Cl)c(Cl)c3=O)cc2)c1C(F)(F)F
[1]; filed as antagonist
  inhibition: > 80%

## CCNC(=O)c1sc(-c2ccc(-n3ccc(Cl)c(Cl)c3=O)cc2)nc1C(F)(F)F
[1]
  inhibition: < 80%

## CS(=O)(=O)c1cnn(-c2ccc(-n3ccc(Cl)c(Cl)c3=O)cc2)c1C(F)(F)F
[1]
  inhibition: < 80%

## CCNC(=O)c1cnn(-c2ccc(-n3ccc(Cl)c(Cl)c3=O)cc2)c1
[1]; filed as antagonist
  inhibition: > 97%

## CCNC(=O)c1nnn(-c2ccc(-n3ccc(Cl)c(Cl)c3=O)cc2)c1C(F)(F)F
[1]
  inhibition: < 80%

## CCNC(=O)c1cnn(-c2ccc(-n3ccc(C(F)(F)F)c(Cl)c3=O)cc2)c1C(F)(F)F
[1]; filed as antagonist
  inhibition: > 80%

## CCOC(=O)c1cnn(-c2ccc(NC(=O)C(Cl)=C(Cl)Cl)cc2)c1C(F)(F)F
[2]
  Activity: inactive
[3]
  Activity: inactive
[4]
  Activity: inactive
[1]; filed as antagonist
  inhibition: > 80%
[5]
  Activity: inactive
[6]
  Activity: inactive

## CCNC(=O)c1cnn(-c2ccc(-n3ccc(O)c(Cl)c3=O)cc2)c1C(F)(F)F
[1]; filed as antagonist
  inhibition: > 90%

## CCNC(=O)c1cn(-c2ccc(-n3ccc(Cl)c(Cl)c3=O)cc2)nc1C(F)(F)F
[1]; filed as antagonist
  inhibition: > 97%

## CCNC(=O)c1cnn(-c2ccc(-n3ccc(Cl)c(Cl)c3=O)cc2)c1S(C)(=O)=O
[1]
  inhibition: < 80%

## CCNC(=O)c1cnn(-c2ccc(-n3ccc(Cl)c(Cl)c3=O)cc2)c1C(F)(F)F
[2]
  Activity: inactive
Hippocampal neurone
  Activity: Active
[7]
  solubility kinetic at 24 h: 144 µM (≈ 64.1 µg/mL)
[3]
  Activity: inactive
[4]
  Activity: inactive
[1]; filed as antagonist
  inhibition: > 80%
[8]
  Activity: Non-toxic
[5]
  Activity: inactive
[6]
  Activity: inactive

## CC(=O)c1cnn(-c2ccc(-n3ccc(Cl)c(Cl)c3=O)cc2)c1C(F)(F)F
[1]; filed as antagonist
  inhibition: > 80%

## CCNC(=O)c1cnn(-c2ccc(-n3ccc(Cl)c(Cl)c3=O)cn2)c1C(F)(F)F
[1]
  inhibition: < 80%

## CCOCc1cnn(-c2ccc(-n3ccc(Cl)c(Cl)c3=O)cc2)c1C(F)(F)F
[1]
  inhibition: < 80%

## CCCNC(=O)c1cnn(-c2ccc(-n3ccc(Cl)c(Cl)c3=O)cc2)c1C(F)(F)F
[1]
  inhibition: < 80%

## CCNC(=O)c1cnn(-c2ccc(-n3ccc(Cl)c(Cl)c3=O)cc2)c1C#N
[1]; filed as antagonist
  inhibition: > 80%

## O=C(NC1CC1)c1cnn(-c2ccc(-n3ccc(Cl)c(Cl)c3=O)cc2)c1C(F)(F)F
[1]
  inhibition: < 80%

## CCc1nnc(-c2cnn(-c3ccc(-n4ccc(Cl)c(Cl)c4=O)cc3)c2C(F)(F)F)o1
[1]; filed as antagonist
  inhibition: > 90%

## CCNC(=O)c1cnn(-c2ccc(-n3ccc(Cl)c(Br)c3=O)cc2)c1C(F)(F)F
[1]
  inhibition: < 80%

## CC(C)CNC(=O)c1cnn(-c2ccc(-n3ccc(Cl)c(Cl)c3=O)cc2)c1C(F)(F)F
[1]; filed as antagonist
  inhibition: > 90%

## CCNC(=O)c1cnn(-c2ccc(-n3ccc(Cl)c(Cl)c3=O)cc2)c1Cl
[1]
  inhibition: < 80%

## CCNC(=O)c1nn(-c2ccc(-n3ccc(Cl)c(Cl)c3=O)cc2)nc1C(F)(F)F
[1]; filed as antagonist
  inhibition: > 80%

## CC(C)NC(=O)c1cnn(-c2ccc(-n3ccc(Cl)c(Cl)c3=O)cc2)c1C(F)(F)F
[1]
  inhibition: < 80%

## CCCCNC(=O)c1cnn(-c2ccc(-n3ccc(Cl)c(Cl)c3=O)cc2)c1C(F)(F)F
[1]
  inhibition: < 80%

## CCN(CC)C(=O)c1cnn(-c2ccc(-n3ccc(Cl)c(Cl)c3=O)cc2)c1C(F)(F)F
[1]; filed as antagonist
  inhibition: > 90%

## CCNC(=O)c1ncn(-c2ccc(-n3ccc(Cl)c(Cl)c3=O)cc2)c1C(F)(F)F
[1]; filed as antagonist
  inhibition: > 90%

## CNC(=O)c1cnn(-c2ccc(-n3ccc(Cl)c(Cl)c3=O)cc2)c1C(F)(F)F
[1]; filed as antagonist
  inhibition: > 80%

## NC(=O)c1cnn(-c2ccc(-n3ccc(Cl)c(Cl)c3=O)cc2)c1C(F)(F)F
[1]
  inhibition: < 80%

## CCCC(=O)c1cnn(-c2ccc(-n3ccc(Cl)c(Cl)c3=O)cc2)c1C(F)(F)F
[1]
  inhibition: < 80%
